In patent US20250275995A1, “NICOTINAMIDE RIBOSIDE DOSAGE REGIMEN FOR TREATING PARKINSON'S DISEASE” (VESTLANDETS INNOVASJONSSELSKAP AS (VIS), priority 2022, published 2025):

Legend:
cerebral NAD levels = test: NADPARK: cerebral NAD levels by 31P-MRS; assay type: in vivo, human
Method: A-C: 31P-MRS was performed at baseline (v1) and after 30 days of treatment (v2). A: exemplary data from one subject showing voxel position. Spectra were acquired for each grid position. B (top): average processed spectra from multiple voxels (black) and the model fit (red). B (bottom): the model fit is composed of the convolution of all spectral contributions of a simulated dataset fitted to the experimental data. […] PCr: phosphocreatine. C: comparison of cerebral NAD levels in the placebo (PL) and NR groups at baseline (v1) and visit-2 (v2). […] Individual subjects are indicated by dots. Connecting lines show the change between v1 and v2. The black points and lines show the mean of each group. […] D: FDG-PET data from all subjects in the NR-group, showing the mean NR-Related Pattern (NRRP, top panel), PD-related pattern (PRDP, middle panel), and the overlap of the two (bottom panel). NR partially ameliorates the striatal and thalamic hypermetabolism of PD. E: Between visit changes showing increased NRRP expression in the NR versus the placebo group. […]
NR is well-tolerated. […] While a significant NR-induced increase in cerebral NAD levels was detected at the group level, this effect was not uniform at the individual level.
Cerebral NAD levels, such as NAD/α-ATP-α molar ratios, can be calculated by using ^31P spectroscopy data from magnetic resonance imaging and spectroscopy (MRI/S) e.g., as shown in FIG. 1B. […] For instance, an anatomical T1-weighted image with the following sequence parameters can be acquired to aid positioning of the ^31P-imaging slab: MPRAGE 3D T1-weighted sagittal volume, TE/TR/TI=2.26 ms/2.4 s/900 ms, acquisition matrix=256×256×192, FOV=256×256×192 mm3, 200 Hz/px readout bandwidth, flip angle=8 degrees and total acquisition duration of 5.6 minutes. ^31P spectroscopy data can then be acquired using a 3D chemical shift imaging (CSI) FID sequence with WALTZ4 1H decoupling and continuous wave nuclear Overhauser effect (NOE) enhancement (Peeters et al., NMR Biomed. 2019; 34: e4169). […]

blood NAD^+ levels = test: NAD-brain pharmacokinetic study: whole blood NAD+ response; assay type: in vivo, human
Method: The NAD-brain study performs a parallel assessment of NAD replenishment therapy pharmacokinetics in the blood and brain of healthy human subjects and subjects with Parkinson's disease (PD). A total of 10 healthy individuals (5 men and 5 women) and 10 individuals with PD (5 men and 5 women) undergo repeated blood sampling and 31P-MRS brain scans during two 20-day periods, each of which starts with 8 days of daily intake of NR 600 mg×2, or NMN 600 mg×2. The two 20-day period is 14 days apart to allow for washout of the previous compound. Blood is analyzed for NR and NAD-metabolites using HPLC-MS. By this approach, we measured the simultaneous change in NAD-metabolism overtime in blood and brain and establish blood and brain pharmacokinetics for NAD replenishment therapy in humans.
NR (Niagen®, Chromadex) at a dose of 600 mg×2 daily). NMN (Restorin®, from Seragon Pharmaceutics, or MIB-626 from Metro International Biotech) at a dose of 600 mg×2 daily.
• At screening, participants are assessed for eligibility, inclusion/exclusion criteria, medical history and concomitant medication is recorded, and informed consent signed. • The NAD-brain study performs a parallel assessment of NAD replenishment therapy pharmacokinetics in the blood and brain of healthy human subjects and subjects with Parkinson's disease (PD). Healthy individuals and individuals with PD undergo repeated blood sampling and 31P-MRS brain scans during two 20-day periods, each of which starts with 8 days of daily intake of NR 600 mg×2, or NMN 600 mg×2 (Table 10). • For each 20-day period the testing (i.e., scanning and blood draw) frequency is shown in Table 10, below. The two 20-day periods are 14 days apart to allow for washout of the previous compound.
Blood is analyzed for NR and NAD-metabolites using HPLC-MS metabolomics. Snap-frozen whole blood is used for the analysis of NAD^+. Blood is drawn from the participant in EDTA tube (VACUETTE® TUBE 2 ml K2E K2EDTA). The EDTA tube is gently inverted at least 10 times without shaking; 8×200 μl of blood from the EDTA tube is aliquoted into 8×0.5 ml micro tubes; these are closed, and all the micro tubes are immerse simultaneously in liquid nitrogen within 2 min from when blood has started flowing into the EDTA tube; then transferred frozen to −80° C. freezer for storage; stored at −80C in freezer-compatible cardboard or plastic storage boxes; and shipped on dry ice.
This is a pharmacokinetic (PK) study where 6 healthy individuals (3 male and 3 female): • 1) Received NR 1200 mg daily (600 mg×2) for 8 days, followed by an additional 11 days follow up, while undergoing serial blood and brain NAD-measurement. • 2) Received NMN 1200 mg daily (600 mg×2) for 8 days, followed by an additional 11 days follow up, while undergoing serial blood and brain NAD-measurement.
The individuals were mixed, so that in stage-1 three individuals received NR and three individuals received NMN, then in stage-2 they switched (Cross-over design). There were almost three weeks (20 days) of washout between the last dose of the first compound, and before the first dose of the second compounds.

## NC(=O)c1ccc[n+]([C@@H]2O[C@H](CO)[C@@H](O)[C@H]2O)c1 [NR, nicotinamide riboside]
Cerebral NAD levels; 1000 mg NR, treatment group, mean (SD=20%)
  increase in cerebral NAD-levels: 38%
Cerebral NAD levels; NR 1000 mg per day, 30 days
  patients with no evidence of cerebral NAD response: three
Cerebral NAD levels; NR 1000 mg per day, baseline vs 30 days, NR group
  change in cerebral NAD levels (31P-MRS): highly significant (paired t-test: P=0.016) increase in cerebral NAD levels
Blood NAD^+ levels; 1200 mg daily (600 mg×2) for 8 days, 6 healthy individuals
  blood NAD^+ levels: increased in all individuals
Blood NAD^+ levels; 1200 mg daily (600 mg×2) for 8 days, cross-over
  blood NAD^+ response, NR compared with NMN: stronger than the NMN response
Blood NAD^+ levels; 1200 mg daily for 8 days, last dose morning of day 8
  day of maximal NAD levels in the blood: 9 days
Blood NAD^+ levels; NR supplementation
  time to reach a steady heightened state of NAD-metabolism in blood and brain: more than 8 days
Blood NAD^+ levels; after 8 days of precursor intake, 1200 mg daily
  plateau of blood NAD^+ levels: did not plateau after 8 days
